{"source": "patent US10280159B2", "about": "(AbbVie Deutschland GmbH & Co. KG, priority 2015, dated 2019)", "assay_type_in_all_cases": "cell-based", "key": {"[1]": {"target": "T1, human S1PR5 (Homo sapiens, UniProt Q9H228)", "T1 construct": "host or cells: CHO-K1", "T1 sequence (Q9H228 whole entry)": "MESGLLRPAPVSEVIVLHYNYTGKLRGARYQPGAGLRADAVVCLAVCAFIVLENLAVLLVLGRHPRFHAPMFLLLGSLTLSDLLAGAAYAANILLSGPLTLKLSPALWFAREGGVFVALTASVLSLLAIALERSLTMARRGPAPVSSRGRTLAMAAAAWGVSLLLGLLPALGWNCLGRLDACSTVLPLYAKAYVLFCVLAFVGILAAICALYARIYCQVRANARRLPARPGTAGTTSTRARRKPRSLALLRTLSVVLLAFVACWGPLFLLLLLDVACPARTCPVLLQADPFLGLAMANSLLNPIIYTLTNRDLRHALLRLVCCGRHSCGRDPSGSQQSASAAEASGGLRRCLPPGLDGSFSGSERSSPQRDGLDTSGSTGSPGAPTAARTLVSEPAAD", "assay": "Intracellular Ca2+ release (FLIPR) agonist potency, S1P5", "details": "recombinant CHO-K1 cells expressing human S1PR5, aequorin, Gq/i5; Calcium 5 FLIPR; read-out: S1P5 EC50 range", "how_it_was_run": "(§1)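 Agonist potency from intracellular Ca²⁺ release measured by FLIPR, with EC50 fitted after normalization to phospho-fingolimod curves. Recombinant CHO-K1 lines co-expressing the respective human S1P receptor, aequorin and Gq/i5.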"}, "[2]": {"target": "T2, human S1PR1 (Homo sapiens, UniProt P21453)", "T2 construct": "host or cells: CHO-K1", "T2 sequence (P21453 whole entry)": "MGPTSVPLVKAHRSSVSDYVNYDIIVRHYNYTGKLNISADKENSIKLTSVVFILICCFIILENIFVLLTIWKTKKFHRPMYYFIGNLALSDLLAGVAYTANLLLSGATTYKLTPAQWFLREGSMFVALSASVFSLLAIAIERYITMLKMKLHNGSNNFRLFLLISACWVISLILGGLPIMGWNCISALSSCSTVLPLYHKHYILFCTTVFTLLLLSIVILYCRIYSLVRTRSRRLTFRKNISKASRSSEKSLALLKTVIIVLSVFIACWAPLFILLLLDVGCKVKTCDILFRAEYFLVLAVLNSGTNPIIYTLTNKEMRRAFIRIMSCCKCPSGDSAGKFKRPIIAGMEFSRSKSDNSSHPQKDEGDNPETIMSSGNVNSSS", "assay": "Intracellular Ca2+ release (FLIPR) agonist potency, S1P1", "details": "recombinant CHO-K1 cells expressing human S1PR1, aequorin, Gq/i5; Calcium 5 FLIPR; read-out: S1P1 EC50", "how_it_was_run": "as §1"}, "[3]": {"target": "T3, human S1PR3 (Homo sapiens, UniProt Q99500)", "T3 construct": "host or cells: CHO-K1", "T3 sequence (Q99500 whole entry)": "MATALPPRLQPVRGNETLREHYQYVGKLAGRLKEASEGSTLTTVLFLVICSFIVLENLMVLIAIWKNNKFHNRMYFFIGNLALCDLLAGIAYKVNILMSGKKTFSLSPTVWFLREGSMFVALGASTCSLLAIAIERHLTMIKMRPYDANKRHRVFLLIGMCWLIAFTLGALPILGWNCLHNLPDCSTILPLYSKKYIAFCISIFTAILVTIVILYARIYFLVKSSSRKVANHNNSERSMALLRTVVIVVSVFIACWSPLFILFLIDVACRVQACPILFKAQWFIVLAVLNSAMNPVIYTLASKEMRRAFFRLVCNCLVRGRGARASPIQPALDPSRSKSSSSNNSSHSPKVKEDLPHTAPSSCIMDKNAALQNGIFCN", "assay": "Intracellular Ca2+ release (FLIPR) agonist potency, S1P3", "details": "recombinant CHO-K1 cells expressing human S1PR3, aequorin, Gq/i5; Calcium 5 FLIPR; read-out: S1P3 EC50", "experimental": "Agonistic activity was measured using the method described below.\nIntracellular Ca^2+ Release\nAgonist potency and intrinsic activity was assessed by measurement of intracellular Ca^2+ release. Recombinant CHO-K1 cells (Euroscreen, Brussels, Belgium) expressing human S1PR5, S1PR1, S1PR3 or S1PR4 receptors, aequorin, and GTP binding protein Gq/i5 were cultured using a medium containing nutrient mixture F-12 Ham (Sigma-Aldrich) with 10% FBS, and 100 μg/mL gentamicin and equilibrated at 5% CO2.\nPhospho-fingolimod was used as positive control. Antagonists were pre-incubated for 10 min with cells before addition of the agonist (phospho-fingolimod at EC80). Measurements were performed using a fluorometric imaging plate reader FLIPR®tetra (Molecular Devices). Agonist at the human S1P receptors were characterized by deducing EC50 (potency) values from a nonlinear fit to the measured fluorescence raw data after normalization to the reference agonist (phospho-fingolimod) curve."}, "[4]": {"target": "T4, human S1PR4 (Homo sapiens, UniProt O95977)", "T4 construct": "host or cells: CHO-K1", "T4 sequence (O95977 1-384)": "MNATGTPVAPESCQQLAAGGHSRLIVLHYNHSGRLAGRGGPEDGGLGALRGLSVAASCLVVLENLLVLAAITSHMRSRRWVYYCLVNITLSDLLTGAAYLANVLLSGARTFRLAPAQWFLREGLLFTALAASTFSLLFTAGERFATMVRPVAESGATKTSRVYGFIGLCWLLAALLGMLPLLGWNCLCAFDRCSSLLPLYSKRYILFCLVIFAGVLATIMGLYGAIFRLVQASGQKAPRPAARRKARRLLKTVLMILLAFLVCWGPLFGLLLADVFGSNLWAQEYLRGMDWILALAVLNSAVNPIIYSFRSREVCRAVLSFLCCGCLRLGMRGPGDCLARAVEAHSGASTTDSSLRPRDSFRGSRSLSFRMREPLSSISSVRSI", "assay": "Intracellular Ca2+ release (FLIPR) agonist potency, S1P4", "details": "recombinant CHO-K1 cells expressing human S1PR4, aequorin, Gq/i5; Calcium 5 FLIPR; read-out: S1P4 EC50", "how_it_was_run": "as §1"}}, "note": "pEC50: −log10 of the molar value.", "data": [{"smiles": "O=C(O)C1CN(C2COc3cc(OCc4c(Cl)cccc4C4CC4)ccc3C2)C1", "note": "(stereo not shown) [Compound 25, 1-(7-((2-chloro-6-cyclopropylbenzyl)oxy)chroman-3-yl)azetidine-3-carboxylic acid]", "values": [{"measurement": "pEC50", "setting": "[1]", "result": "> 8.00"}, {"measurement": "pEC50", "setting": "[2]", "result": "< 6.00"}, {"measurement": "pEC50", "setting": "[3]", "result": "< 6.00"}, {"measurement": "pEC50", "setting": "[4]", "result": "> 6.00"}]}, {"smiles": "O=C(O)C1CN(C2COc3cc(C#Cc4cc(F)cc(F)c4)ccc3C2)C1", "note": "(stereo not shown) [Compound 27, 1-(7-((3,5-difluorophenyl)ethynyl)chroman-3-yl)azetidine-3-carboxylic acid]", "values": [{"measurement": "pEC50", "setting": "[1]", "result": "> 8.00"}, {"measurement": "pEC50", "setting": "[2]", "result": "< 6.00"}, {"measurement": "pEC50", "setting": "[3]", "result": "< 6.00"}, {"measurement": "pEC50", "setting": "[4]", "result": "> 6.00"}]}, {"smiles": "O=C(O)CNC1CCc2cc(C#Cc3cc(F)cc(F)c3)ccc2C1", "note": "(stereo not shown) [Compound 28, 2-((6-((3,5-difluorophenyl)ethynyl)-1,2,3,4-tetrahydronaphthalen-2-yl)amino)acetic acid]", "values": [{"measurement": "pEC50", "setting": "[1]", "result": "> 8.00"}, {"measurement": "pEC50", "setting": "[2]", "result": "< 6.00"}, {"measurement": "pEC50", "setting": "[3]", "result": "< 6.00"}, {"measurement": "pEC50", "setting": "[4]", "result": "> 6.00"}]}, {"smiles": "O=C(O)CNC1CCc2cc(C#Cc3c(Cl)cccc3Cl)ccc2C1", "note": "(stereo not shown) [Compound 29, 2-((6-((2,6-dichlorophenyl)ethynyl)-1,2,3,4-tetrahydronaphthalen-2-yl)amino)acetic acid]", "values": [{"measurement": "pEC50", "setting": "[1]", "result": "> 8.00"}, {"measurement": "pEC50", "setting": "[2]", "result": "< 6.00"}, {"measurement": "pEC50", "setting": "[3]", "result": "< 6.00"}, {"measurement": "pEC50", "setting": "[4]", "result": "> 6.00"}]}, {"smiles": "O=C(O)CNC1CCc2cc(C#CC3CCCCC3)ccc2C1", "note": "(stereo not shown) [Compound 30, 2-((6-(cyclohexylethynyl)-1,2,3,4-tetrahydronaphthalen-2-yl)amino)acetic acid]", "values": [{"measurement": "pEC50", "setting": "[1]", "result": "> 8.00"}, {"measurement": "pEC50", "setting": "[2]", "result": "< 6.00"}, {"measurement": "pEC50", "setting": "[3]", "result": "< 6.00"}, {"measurement": "pEC50", "setting": "[4]", "result": "> 6.00"}]}, {"smiles": "O=C(O)C1CCN(C2CCc3cc(OCc4c(Cl)cccc4Cl)ccc3C2)CC1", "note": "(stereo not shown) [Compound 31, 1-(6-((2,6-dichlorobenzyl)oxy)-1,2,3,4-tetrahydronaphthalen-2-yl)piperidine-4-carboxylic acid]", "values": [{"measurement": "pEC50", "setting": "[1]", "result": "> 8.00"}, {"measurement": "pEC50", "setting": "[2]", "result": "> 6.00"}, {"measurement": "pEC50", "setting": "[3]", "result": "< 6.00"}, {"measurement": "pEC50", "setting": "[4]", "result": "> 6.00"}]}, {"smiles": "O=C(O)C12CC(NC3CCc4cc(OCc5c(Cl)cccc5Cl)ccc4C3)(C1)C2", "note": "(stereo not shown) [Compound 32, 3-((6-((2,6-dichlorobenzyl)oxy)-1,2,3,4-tetrahydronaphthalen-2-yl)amino)bicyclo[1.1.1]pentane-1-carboxylic acid]", "values": [{"measurement": "pEC50", "setting": "[1]", "result": "> 8.00"}, {"measurement": "pEC50", "setting": "[2]", "result": "< 6.00"}, {"measurement": "pEC50", "setting": "[3]", "result": "< 6.00"}, {"measurement": "pEC50", "setting": "[4]", "result": "> 6.00"}]}, {"smiles": "CC(NC1CCc2cc(OCc3c(Cl)cccc3Cl)ccc2C1)C(=O)O", "note": "(stereo not shown) [Compound 33, 2-((6-((2,6-dichlorobenzyl)oxy)-1,2,3,4-tetrahydronaphthalen-2-yl)amino)propanoic acid]", "values": [{"measurement": "pEC50", "setting": "[1]", "result": "> 8.00"}, {"measurement": "pEC50", "setting": "[2]", "result": "< 6.00"}, {"measurement": "pEC50", "setting": "[3]", "result": "< 6.00"}, {"measurement": "pEC50", "setting": "[4]", "result": "> 6.00"}]}, {"smiles": "CCc1cccc(Cl)c1COc1ccc2c(c1)OCC(NCC(=O)O)C2", "note": "(stereo not shown) [Compound 34, 2-((7-((2-chloro-6-ethylbenzyl)oxy)chroman-3-yl)amino)acetic acid]", "values": [{"measurement": "pEC50", "setting": "[1]", "result": "> 8.00"}, {"measurement": "pEC50", "setting": "[2]", "result": "< 6.00"}, {"measurement": "pEC50", "setting": "[3]", "result": "< 6.00"}, {"measurement": "pEC50", "setting": "[4]", "result": "> 6.00"}]}, {"smiles": "O=C(O)CNC1COc2cc(OCc3c(Cl)cccc3Cl)ccc2C1", "note": "(stereo not shown) [Compound 35, 2-((7-((2,6-dichlorobenzyl)oxy)chroman-3-yl)amino)acetic acid]", "values": [{"measurement": "pEC50", "setting": "[1]", "result": "6.00 to 7.00"}, {"measurement": "pEC50", "setting": "[2]", "result": "< 6.00"}, {"measurement": "pEC50", "setting": "[3]", "result": "< 6.00"}, {"measurement": "pEC50", "setting": "[4]", "result": "> 6.00"}]}, {"smiles": "O=C(O)C1CN(C2COc3cc(C#Cc4cc(F)ccc4F)ccc3C2)C1", "note": "(stereo not shown) [Compound 38, 1-(7-((2,5-difluorophenyl)ethynyl)chroman-3-yl)azetidine-3-carboxylic acid]", "values": [{"measurement": "pEC50", "setting": "[1]", "result": "> 8.00"}, {"measurement": "pEC50", "setting": "[2]", "result": "< 6.00"}, {"measurement": "pEC50", "setting": "[3]", "result": "< 6.00"}, {"measurement": "pEC50", "setting": "[4]", "result": "> 6.00"}]}, {"smiles": "O=C(O)C1CN(C2COc3cc(C#Cc4cccc(Cl)c4)ccc3C2)C1", "note": "(stereo not shown) [Compound 40, 1-(7-((3-chlorophenyl)ethynyl)chroman-3-yl)azetidine-3-carboxylic acid]", "values": [{"measurement": "pEC50", "setting": "[1]", "result": "7.00 to 8.00"}, {"measurement": "pEC50", "setting": "[2]", "result": "< 6.00"}, {"measurement": "pEC50", "setting": "[3]", "result": "< 6.00"}, {"measurement": "pEC50", "setting": "[4]", "result": "> 6.00"}]}, {"smiles": "O=C(O)C1CN(C2COc3cc(C#Cc4ccccc4C(F)(F)F)ccc3C2)C1", "note": "(stereo not shown) [Compound 41, 1-(7-((2-(trifluoromethyl)phenyl)ethynyl)chroman-3-yl)azetidine-3-carboxylic acid]", "values": [{"measurement": "pEC50", "setting": "[1]", "result": "7.00 to 8.00"}, {"measurement": "pEC50", "setting": "[2]", "result": "< 6.00"}, {"measurement": "pEC50", "setting": "[3]", "result": "< 6.00"}, {"measurement": "pEC50", "setting": "[4]", "result": "< 6.00"}]}]}
